Test results taken from patent publication US10358434B2, “2-(3-pyridinyl)-1H-benzimidazole derivative compound and medicament containing same” (NIHON MEDI-PHYSICS CO., LTD., priority 2014, dated 2019).

Legend:
[1] = test system: human adrenal gland section expressing aldosterone-producing adenoma; assay: In vitro autoradiography using human adrenal adenoma; format: binding
Excerpt: From adrenal gland excised from a human patient for treatment of primary aldosteronism, a portion containing aldosterone-producing adenoma was removed and was then frozen. The frozen adrenal gland was embedded in an embedding agent for production of a frozen tissue section (Tissue-Tek O.C.T. Compound, Sakura Finetek Japan). Using a freezing microtome (CM3050S, Leica Microsystems), a 7-μm thin slice section, which is schematically shown in FIGS. 17(a) and 17(b), was produced, and was preserved at −20° C. before use. In FIGS. 17, 71a and 71b indicate aldosterone-producing adenomas, 72a and 72b indicate normal adrenal cortexes, and 73a and 73b indicate normal adrenal medullas. A 5-33 kBq/mL solution was prepared by adding a suitable amount of each of Compounds [^18F] 100, [^18F] 200, [^123I] 400, [^18F] 500, and [^123I] 601 to [^123I] 610, which were obtained by the methods described in Examples 2, 4, 7, 9, 11, 13, 15, 17, 19, 21, 23, 25, 27, and 29, or [^123I] IMTO to a phosphate-buffered physiological saline containing 1 w/v % bovine serum albumin (not containing fatty acid). The radioactivity concentration was measured using an autowell gamma system (ARC-7001, manufactured by Hitachi Aloka Medical, Ltd.). The section was immersed in the obtained sample solution for 10 minutes. For Compounds [^18F] 100, [^18F] 200, [^123I] 400, [^18F] 500, [^123I] 601 and [^123I] 602, the section shown in FIG. 17(a) was used, and for Compounds […] [^123I] IMTO, both sections shown in FIGS. 17(a) and (b) were used. Each sample solution was washed off, and the section was then exposed to an imaging plate (BAS-SR2040, manufactured by FUJIFILM Holdings Corporation) (IP) for 16-20 hours, and thereafter, an autoradiogram was obtained using a fluoro-image analyzer (FLA-7000, manufactured by FUJIFILM Holdings Corporation).
In order to quantitatively compare differences between images caused by ^123I and ^18F nuclides, a correction was made by calculating accumulation of radioactivity within the range of a region of interest (ROI) by means of integral calculation based on half-life, added radioactivity and IP contact time.
610. FIG. 18(b), FIG. 19(b), FIG. 20(b), FIG. 21(b), FIG. 22(a), FIG. 23(a), FIG. 24(a), FIG. 25(a), FIG. 26(a), FIG. 27(a), FIG. 28(a), FIG. 29(a), FIG. 30(a), and FIG. 31(a) each show an autoradiogram of [^123I] IMTO. […] 100, [^18F] 200, [^123I] 400, [^18F] 500, and [^123I] 601 to [^123I] […] The ROI having the same area as each other was established in a normal site and in a site in which aldosterone-producing adenoma had developed. Then, the PSL value (B1) indicating accumulation of radioactivity in the sites of normal adrenal cortexes 72a and 72b was compared with the PSL value (B2) indicating accumulation of radioactivity in the sites of aldosterone-producing adenomas 71a and 71b. In Table 7, the B1, B2 and B2/B1 values of [^18F] 100 indicate the mean values for the number of tests (n), respectively.

[2] = In vivo kinetics experiment (radioactivity distribution); set-up: species or system Wistar male rat; conditions: rat i.v., mean ± SD
Protocol: Each of Compounds [^18F] 100, [^18F] 200, [^123I] 400, [^18F] 500, and [^123I] 601 to 610 obtained by the methods described in Examples 2, 4, 7, 9, 11, 13, 15, 17, 19, 21, 23, 25, 27, and 29, or [^123I] IMTO, was diluted with a physiological saline containing 1 w/v % ascorbic acid to prepare a solution to be administered. The above described compound (approximately 1 to 3.7 MBq) was injected into the caudal vein of a Wistar male rat (9 weeks old) under anesthesia with a mixed gas of isoflurane/air, and ten minutes after the injection, the rat was sacrificed by exsanguination. From the thus sacrificed rat, blood and organs (heart, lung, stomach, liver, spleen, small intestine, large intestine, kidney, bladder (including urine), muscle (lower limbs), brain, adrenal gland, testis, fat, femur, or thyroid gland) were excised, and the weights thereof were then measured. Thereafter, radioactivity was measured in the blood, the individual excised organs, and the remaining whole body. Further, 30 and 60 minutes after the administration, the same operations as those described above were carried out. […] The symbol “n” in Tables 9 to 23 indicates the number of rats used. In addition, Tables 9 to 23 also show the ratio of radioactivity accumulation in adrenal grand (% ID/g) to radioactivity accumulation in each of blood, liver, kidney, small intestine, muscle and fat (% ID/g).

COC(=O)c1cncn1[C@H](C)c1ccc(I)cc1 [[^123I] IMTO, (R)-[^123I]iodometomidate, reference compound]
accumulation of radioactivity in adrenal gland section (autoradiogram) ([1]; FIGS. 18 to 31): accumulation of radioactivity was observed in the entire adrenal gland section | B2/B1 accumulation ratio ([1]; section of FIG. 17(a)): 0.84 | B2 (PSL value, aldosterone-producing adenoma) ([1]; section of FIG. 17(a), site 71a): 7863 | B1 (PSL value, normal adrenal cortex) ([1]; section of FIG. 17(a), site 72a): 9415 | B2/B1 accumulation ratio ([1]; section of FIG. 17(b)): 0.79 | B2 (PSL value, aldosterone-producing adenoma) ([1]; section of FIG. 17(b), site 71b): 6649 | B1 (PSL value, normal adrenal cortex) ([1]; section of FIG. 17(b), site 72b): 8453 | Adrenal gland/blood ratio of radioactivity accumulation ([2]; 10 min after administration): 15.93 ± 4.94 | Adrenal gland/kidney ratio of radioactivity accumulation ([2]; 10 min after administration): 31.76 ± 10.16 | Adrenal gland/liver ratio of radioactivity accumulation ([2]; 10 min after administration): 6.72 ± 2.00 | Adrenal gland/muscle ratio of radioactivity accumulation ([2]; 10 min after administration): 126.18 ± 54.27 | Adrenal gland/small intestine ratio of radioactivity accumulation ([2]; 10 min after administration): 35.65 ± 9.43 | Radioactivity distribution Adrenal gland ([2]; 10 min after administration): 22.14 ± 6.98 % ID/g | Radioactivity distribution Bladder (including urine) ([2]; 10 min after administration): 0.25 ± 0.27 % ID/g | Radioactivity distribution Blood ([2]; 10 min after administration): 1.40 ± 0.13 % ID/g | Radioactivity distribution Heart ([2]; 10 min after administration): 0.48 ± 0.07 % ID/g | Radioactivity distribution Kidney ([2]; 10 min after administration): 0.70 ± 0.01 % ID/g | Radioactivity distribution Large intestine ([2]; 10 min after administration): 0.10 ± 0.02 % ID/g | Radioactivity distribution Liver ([2]; 10 min after administration): 3.29 ± 0.08 % ID/g | Radioactivity distribution Lung ([2]; 10 min after administration): 0.72 ± 0.05 % ID/g | Radioactivity distribution Muscle (lower limbs) ([2]; 10 min after administration): 0.18 ± 0.05 % ID/g | Radioactivity distribution Remaining whole body ([2]; 10 min after administration): 0.29 ± 0.00 % ID/g | Radioactivity distribution Small intestine ([2]; 10 min after administration): 0.62 ± 0.03 % ID/g | Radioactivity distribution Spleen ([2]; 10 min after administration): 0.30 ± 0.02 % ID/g | Radioactivity distribution Stomach ([2]; 10 min after administration): 0.52 ± 0.18 % ID/g | Radioactivity distribution Testis ([2]; 10 min after administration): 0.52 ± 0.08 % ID/g | Radioactivity distribution Thyroid gland ([2]; 10 min after administration): 1.30 ± 1.05 % ID/g | Radioactivity distribution Whole brain ([2]; 10 min after administration): 0.30 ± 0.02 % ID/g | Adrenal gland/blood ratio of radioactivity accumulation ([2]; 30 min after administration): 6.84 ± 2.49 | Adrenal gland/kidney ratio of radioactivity accumulation ([2]; 30 min after administration): 16.66 ± 8.95 | Adrenal gland/liver ratio of radioactivity accumulation ([2]; 30 min after administration): 9.74 ± 4.16 | Adrenal gland/muscle ratio of radioactivity accumulation ([2]; 30 min after administration): 97.10 ± 32.37 | Adrenal gland/small intestine ratio of radioactivity accumulation ([2]; 30 min after administration): 25.49 ± 8.31 | Radioactivity distribution Adrenal gland ([2]; 30 min after administration): 17.66 ± 7.43 % ID/g | Radioactivity distribution Bladder (including urine) ([2]; 30 min after administration): 0.39 ± 0.08 % ID/g | Radioactivity distribution Blood ([2]; 30 min after administration): 2.55 ± 0.16 % ID/g | Radioactivity distribution Heart ([2]; 30 min after administration): 0.74 ± 0.03 % ID/g | Radioactivity distribution Kidney ([2]; 30 min after administration): 1.10 ± 0.12 % ID/g | Radioactivity distribution Large intestine ([2]; 30 min after administration): 0.12 ± 0.01 % ID/g | Radioactivity distribution Liver ([2]; 30 min after administration): 1.82 ± 0.04 % ID/g | Radioactivity distribution Lung ([2]; 30 min after administration): 0.90 ± 0.09 % ID/g | Radioactivity distribution Muscle (lower limbs) ([2]; 30 min after administration): 0.18 ± 0.02 % ID/g | Radioactivity distribution Remaining whole body ([2]; 30 min after administration): 0.31 ± 0.03 % ID/g | Radioactivity distribution Small intestine ([2]; 30 min after administration): 0.68 ± 0.06 % ID/g | Radioactivity distribution Spleen ([2]; 30 min after administration): 0.43 ± 0.04 % ID/g | Radioactivity distribution Stomach ([2]; 30 min after administration): 0.46 ± 0.11 % ID/g | Radioactivity distribution Testis ([2]; 30 min after administration): 0.32 ± 0.04 % ID/g | Radioactivity distribution Thyroid gland ([2]; 30 min after administration): 0.81 ± 0.16 % ID/g | Radioactivity distribution Whole brain ([2]; 30 min after administration): 0.18 ± 0.02 % ID/g | Adrenal gland/blood ratio of radioactivity accumulation ([2]; 60 min after administration): 6.73 ± 2.57 | Adrenal gland/kidney ratio of radioactivity accumulation ([2]; 60 min after administration): 18.20 ± 8.58 | Adrenal gland/liver ratio of radioactivity accumulation ([2]; 60 min after administration): 14.20 ± 5.28 | Adrenal gland/muscle ratio of radioactivity accumulation ([2]; 60 min after administration): 120.14 ± 30.92 | Adrenal gland/small intestine ratio of radioactivity accumulation ([2]; 60 min after administration): 24.59 ± 8.26 | Radioactivity distribution Adrenal gland ([2]; 60 min after administration): 19.70 ± 8.14 % ID/g | Radioactivity distribution Bladder (including urine) ([2]; 60 min after administration): 0.68 ± 0.30 % ID/g | Radioactivity distribution Blood ([2]; 60 min after administration): 2.91 ± 0.09 % ID/g | Radioactivity distribution Heart ([2]; 60 min after administration): 0.77 ± 0.03 % ID/g | Radioactivity distribution Kidney ([2]; 60 min after administration): 1.10 ± 0.10 % ID/g | Radioactivity distribution Large intestine ([2]; 60 min after administration): 0.14 ± 0.02 % ID/g | Radioactivity distribution Liver ([2]; 60 min after administration): 1.37 ± 0.06 % ID/g | Radioactivity distribution Lung ([2]; 60 min after administration): 1.01 ± 0.03 % ID/g | Radioactivity distribution Muscle (lower limbs) ([2]; 60 min after administration): 0.16 ± 0.02 % ID/g | Radioactivity distribution Remaining whole body ([2]; 60 min after administration): 0.34 ± 0.01 % ID/g | Radioactivity distribution Small intestine ([2]; 60 min after administration): 0.79 ± 0.11 % ID/g | Radioactivity distribution Spleen ([2]; 60 min after administration): 0.39 ± 0.03 % ID/g | Radioactivity distribution Stomach ([2]; 60 min after administration): 0.41 ± 0.05 % ID/g | Radioactivity distribution Testis ([2]; 60 min after administration): 0.33 ± 0.02 % ID/g | Radioactivity distribution Thyroid gland ([2]; 60 min after administration): 1.29 ± 0.25 % ID/g | Radioactivity distribution Whole brain ([2]; 60 min after administration): 0.11 ± 0.00 % ID/g
